Measurements reported in patent publication US11007270B2, “Polymer-semaxanib moiety conjugates” (Nektar Therapeutics, priority 2010, dated 2021).
Values joined by “and” are separate entries in the source; they are usually repeats but may differ in a detail not shown here. Equal values may be shown once. Read-outs that look alike come from different tables or passages of the source. Each block holds one molecule with its values, some of them ahead of it.

Key:
VEGFR-2 = VEGFR-2 (Homo sapiens, UniProt P35968); test: VEGFR-2 kinase inhibition, Caliper screening (fluorescent substrate phosphorylation, electrophoretic separation)
c-Kit = c-Kit (Homo sapiens, UniProt P10721); test: c-Kit tyrosine kinase inhibition, Caliper screening (fluorescent substrate phosphorylation, electrophoretic separation); assay type: biochemical; settings: for IC50: averages of replicate wells; for c-Kit Fold: fold of IC50 relative to sunitinib
RET = RET (Homo sapiens, UniProt P07949); test: RET kinase inhibition, Caliper screening (fluorescent substrate phosphorylation, electrophoretic separation)
[1] = concentration 1.0E−05 (unit not given)
[2] = concentration 1.0E−06 (unit not given)
[3] = concentration 1.0E−07 (unit not given)
[4] = concentration 1.0E−08 (unit not given)
[5] = concentration 1.0E−09 (unit not given)
[6] = concentration 1.0E−10 (unit not given)
[7] = concentration 3.0E−05 (unit not given)
[8] = concentration 3.0E−06 (unit not given)
[9] = concentration 3.0E−07 (unit not given)
[10] = concentration 3.0E−08 (unit not given)
[11] = concentration 3.0E−09 (unit not given)
[12] = concentration 3.0E−10 (unit not given)
[13] = fold of IC50 relative to sunitinib

Sequence of RET (P07949 29-1114, species assumed): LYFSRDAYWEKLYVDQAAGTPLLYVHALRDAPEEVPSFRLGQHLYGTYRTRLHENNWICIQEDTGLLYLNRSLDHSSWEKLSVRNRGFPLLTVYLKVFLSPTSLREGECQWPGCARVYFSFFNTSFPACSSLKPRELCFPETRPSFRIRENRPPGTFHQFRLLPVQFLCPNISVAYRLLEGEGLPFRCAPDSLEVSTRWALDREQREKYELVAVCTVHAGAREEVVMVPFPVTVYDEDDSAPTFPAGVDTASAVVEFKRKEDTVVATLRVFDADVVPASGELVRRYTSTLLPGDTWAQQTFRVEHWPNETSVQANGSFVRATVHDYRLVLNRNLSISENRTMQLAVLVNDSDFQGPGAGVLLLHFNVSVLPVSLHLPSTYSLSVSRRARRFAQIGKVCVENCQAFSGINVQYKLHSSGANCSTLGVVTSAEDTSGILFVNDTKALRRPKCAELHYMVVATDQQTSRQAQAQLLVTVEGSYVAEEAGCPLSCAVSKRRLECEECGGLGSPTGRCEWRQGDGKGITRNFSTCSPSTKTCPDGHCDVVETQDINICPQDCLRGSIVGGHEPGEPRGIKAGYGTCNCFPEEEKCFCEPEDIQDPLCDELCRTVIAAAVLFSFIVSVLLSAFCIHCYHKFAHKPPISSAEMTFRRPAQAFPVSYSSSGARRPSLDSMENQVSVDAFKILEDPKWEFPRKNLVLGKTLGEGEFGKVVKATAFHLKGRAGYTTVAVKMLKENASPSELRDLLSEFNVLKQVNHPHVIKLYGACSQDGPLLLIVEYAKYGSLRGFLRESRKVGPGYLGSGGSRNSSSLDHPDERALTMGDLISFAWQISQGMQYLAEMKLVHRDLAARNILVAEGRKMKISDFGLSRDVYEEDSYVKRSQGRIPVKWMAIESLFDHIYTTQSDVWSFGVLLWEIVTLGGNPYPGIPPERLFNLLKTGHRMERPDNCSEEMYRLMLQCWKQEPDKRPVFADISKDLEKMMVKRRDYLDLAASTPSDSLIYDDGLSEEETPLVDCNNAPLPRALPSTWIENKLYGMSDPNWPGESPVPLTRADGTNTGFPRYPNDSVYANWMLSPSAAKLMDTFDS
Sequence of c-Kit (P10721 26-976): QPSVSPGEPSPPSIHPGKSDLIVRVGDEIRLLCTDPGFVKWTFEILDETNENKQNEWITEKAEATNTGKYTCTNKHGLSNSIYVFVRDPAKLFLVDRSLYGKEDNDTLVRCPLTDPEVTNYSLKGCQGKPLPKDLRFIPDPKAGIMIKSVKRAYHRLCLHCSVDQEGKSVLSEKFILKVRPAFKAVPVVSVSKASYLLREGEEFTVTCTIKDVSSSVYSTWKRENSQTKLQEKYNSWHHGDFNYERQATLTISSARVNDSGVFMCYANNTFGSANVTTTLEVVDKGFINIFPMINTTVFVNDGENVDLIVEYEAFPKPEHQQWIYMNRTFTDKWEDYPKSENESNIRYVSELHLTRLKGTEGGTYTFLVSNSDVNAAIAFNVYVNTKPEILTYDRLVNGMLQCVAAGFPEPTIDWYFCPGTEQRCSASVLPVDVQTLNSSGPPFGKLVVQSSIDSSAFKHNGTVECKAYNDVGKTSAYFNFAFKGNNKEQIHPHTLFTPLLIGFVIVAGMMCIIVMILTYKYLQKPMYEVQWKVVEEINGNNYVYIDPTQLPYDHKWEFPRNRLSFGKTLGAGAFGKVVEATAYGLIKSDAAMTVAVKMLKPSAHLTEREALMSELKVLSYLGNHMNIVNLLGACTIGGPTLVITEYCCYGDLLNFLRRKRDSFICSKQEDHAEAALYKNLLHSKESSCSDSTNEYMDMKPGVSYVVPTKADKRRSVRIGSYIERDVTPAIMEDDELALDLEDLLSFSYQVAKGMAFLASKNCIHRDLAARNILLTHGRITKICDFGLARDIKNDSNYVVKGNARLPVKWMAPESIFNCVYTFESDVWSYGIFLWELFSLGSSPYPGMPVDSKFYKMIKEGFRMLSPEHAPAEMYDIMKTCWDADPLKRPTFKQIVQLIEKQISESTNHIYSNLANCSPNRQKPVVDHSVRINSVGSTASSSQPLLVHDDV
Sequence of VEGFR-2 (P35968 20-1356, species assumed): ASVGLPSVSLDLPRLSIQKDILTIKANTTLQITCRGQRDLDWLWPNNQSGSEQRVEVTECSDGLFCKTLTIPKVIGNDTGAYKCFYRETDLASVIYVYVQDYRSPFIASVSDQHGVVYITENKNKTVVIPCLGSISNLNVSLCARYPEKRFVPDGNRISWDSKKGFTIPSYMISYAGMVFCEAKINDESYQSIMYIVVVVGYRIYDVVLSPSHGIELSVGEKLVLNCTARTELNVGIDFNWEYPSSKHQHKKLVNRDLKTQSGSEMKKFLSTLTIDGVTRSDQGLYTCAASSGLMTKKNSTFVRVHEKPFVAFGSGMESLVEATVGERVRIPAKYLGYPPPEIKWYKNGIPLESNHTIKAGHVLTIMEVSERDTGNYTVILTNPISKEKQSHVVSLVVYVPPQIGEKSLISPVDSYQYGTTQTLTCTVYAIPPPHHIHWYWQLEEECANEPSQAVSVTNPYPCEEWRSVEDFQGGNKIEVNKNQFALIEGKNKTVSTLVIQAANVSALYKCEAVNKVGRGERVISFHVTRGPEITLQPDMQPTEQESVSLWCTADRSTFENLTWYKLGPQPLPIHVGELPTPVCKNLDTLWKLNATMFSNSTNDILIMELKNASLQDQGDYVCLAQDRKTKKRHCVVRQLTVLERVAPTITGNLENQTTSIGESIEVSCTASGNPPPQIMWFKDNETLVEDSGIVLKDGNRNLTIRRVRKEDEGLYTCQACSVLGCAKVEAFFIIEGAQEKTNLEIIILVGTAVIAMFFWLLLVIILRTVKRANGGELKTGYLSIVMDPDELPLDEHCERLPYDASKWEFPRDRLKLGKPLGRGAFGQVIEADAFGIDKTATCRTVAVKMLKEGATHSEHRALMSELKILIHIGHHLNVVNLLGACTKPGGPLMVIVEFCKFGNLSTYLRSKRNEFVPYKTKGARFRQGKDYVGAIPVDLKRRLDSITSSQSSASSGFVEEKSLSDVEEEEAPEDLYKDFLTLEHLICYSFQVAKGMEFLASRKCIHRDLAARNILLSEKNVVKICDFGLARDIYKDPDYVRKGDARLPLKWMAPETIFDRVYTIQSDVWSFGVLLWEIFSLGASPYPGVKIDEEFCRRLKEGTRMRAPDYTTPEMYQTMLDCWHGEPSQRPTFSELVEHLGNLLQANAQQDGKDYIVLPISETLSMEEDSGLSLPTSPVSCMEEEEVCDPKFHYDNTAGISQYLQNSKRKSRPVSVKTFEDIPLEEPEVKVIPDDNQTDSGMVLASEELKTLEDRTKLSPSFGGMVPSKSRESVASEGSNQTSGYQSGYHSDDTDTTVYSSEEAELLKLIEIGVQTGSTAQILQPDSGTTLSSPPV

SMILES: COCCOCCOCCOCCOCCOCCNC(=O)c1c(C)[nH]c(/C=C2\C(=O)Nc3ccc(F)cc32)c1C [mPEG6-semaxanib, (Z)-5-((5-fluoro-2-oxoindolin-3-ylidene)methyl)-2,4-dimethyl-1H-pyrrole-3-mPEG6-amide]
VEGFR-2 AVG % Activity at Specific Concentration (VEGFR-2): 96% and 93%
IC50 (c-Kit): 290 nM
c-Kit AVG % Activity at Specific Concentration (c-Kit; [1]): −1%
c-Kit AVG % Activity at Specific Concentration (c-Kit; [2]): 8%
c-Kit AVG % Activity at Specific Concentration (c-Kit; [3]): 79%
c-Kit AVG % Activity at Specific Concentration (c-Kit; [4]): 94%
c-Kit AVG % Activity at Specific Concentration (c-Kit; [5]): 97%
c-Kit AVG % Activity at Specific Concentration (c-Kit; [6]): 91%
c-Kit AVG % Activity at Specific Concentration (c-Kit; [7]): −1%
c-Kit AVG % Activity at Specific Concentration (c-Kit; [8]): 0%
c-Kit AVG % Activity at Specific Concentration (c-Kit; [9]): 44%
c-Kit AVG % Activity at Specific Concentration (c-Kit; [10]): 95%
c-Kit AVG % Activity at Specific Concentration (c-Kit; [11]): 99%
c-Kit AVG % Activity at Specific Concentration (c-Kit; [12]): 87%
c-Kit Fold (c-Kit): 3.90

IC50 (VEGFR-2): 300 nM
VEGFR-2 AVG % Activity at Specific Concentration (VEGFR-2; [1]): 1%
VEGFR-2 AVG % Activity at Specific Concentration (VEGFR-2; [2]): 20%
VEGFR-2 AVG % Activity at Specific Concentration (VEGFR-2; [3]): 61%
VEGFR-2 AVG % Activity at Specific Concentration (VEGFR-2; [4]): 77%
VEGFR-2 AVG % Activity at Specific Concentration (VEGFR-2; [5]): 84%
VEGFR-2 AVG % Activity at Specific Concentration (VEGFR-2; [6]): 89%
VEGFR-2 AVG % Activity at Specific Concentration (VEGFR-2; [7]): −1%
VEGFR-2 AVG % Activity at Specific Concentration (VEGFR-2; [8]): 8%
VEGFR-2 AVG % Activity at Specific Concentration (VEGFR-2; [9]): 46%
VEGFR-2 AVG % Activity at Specific Concentration (VEGFR-2; [10]): 71%
VEGFR-2 AVG % Activity at Specific Concentration (VEGFR-2; [11]): 84%
VEGFR-2 AVG % Activity at Specific Concentration (VEGFR-2; [12]): 84%
VEGFR-2 Fold (VEGFR-2; [13]): 6.12
IC50 (RET): 870 nM
RET AVG % Activity at Specific Concentration (RET; [1]): 5%
RET AVG % Activity at Specific Concentration (RET; [2]): 49%
RET AVG % Activity at Specific Concentration (RET; [3]): 90%
RET AVG % Activity at Specific Concentration (RET; [4]): 105%
RET AVG % Activity at Specific Concentration (RET; [5]): 104%
RET AVG % Activity at Specific Concentration (RET; [6]): 100%
RET AVG % Activity at Specific Concentration (RET; [7]): 0%
RET AVG % Activity at Specific Concentration (RET; [8]): 21%
RET AVG % Activity at Specific Concentration (RET; [9]): 74%
RET AVG % Activity at Specific Concentration (RET; [10]): 96%
RET AVG % Activity at Specific Concentration (RET; [11]): 101%
RET AVG % Activity at Specific Concentration (RET; [12]): 97%
RET Fold (RET; [13]): 20.23
IC50 (c-Kit): 390 nM
c-Kit AVG % Activity at Specific Concentration (c-Kit; [1]): 0%
c-Kit AVG % Activity at Specific Concentration (c-Kit; [2]): 16%
c-Kit AVG % Activity at Specific Concentration (c-Kit; [3]): 90%
c-Kit AVG % Activity at Specific Concentration (c-Kit; [4]): 102%
c-Kit AVG % Activity at Specific Concentration (c-Kit; [5]): 105%
c-Kit AVG % Activity at Specific Concentration (c-Kit; [6]): 95%
c-Kit AVG % Activity at Specific Concentration (c-Kit; [7]): −1%
c-Kit AVG % Activity at Specific Concentration (c-Kit; [8]): 2%
c-Kit AVG % Activity at Specific Concentration (c-Kit; [9]): 60%
c-Kit AVG % Activity at Specific Concentration (c-Kit; [10]): 100%
c-Kit AVG % Activity at Specific Concentration (c-Kit; [11]): 105%
c-Kit AVG % Activity at Specific Concentration (c-Kit; [12]): 102%
c-Kit Fold (c-Kit): 5.30
SMILES: COCCOCCOCCOCCOCCOCCOCCOCCOCCNC(=O)c1c(C)[nH]c(/C=C2\C(=O)Nc3ccc(F)cc32)c1C [mPEG9-semaxanib, (Z)-5-((5-fluoro-2-oxoindolin-3-ylidene)methyl)-2,4-dimethyl-1H-pyrrole-3-mPEG8-amide]
